# Data as given in US20040034206A1, “Combination therapy for RNA virus infections involving ribavirin and IMPDH inhibitors” (priority 2002, published 2004).
# Read-outs that look alike come from different tables or passages of the source.
# What was measured:
# [1] = tested on: HCV subgenomic replicon (clone 16) in Huh-7 cells; assay type: cell-based, Hepatitis C Virus
# Text: We examined the mutagenic effect of ribavirin and other IMPDH inhibitors on HCV using the recently developed HCV replicon system. See German Patent No. DE19915178A1 to Bartenschlager, the disclosure of which is hereby incorporated by reference in its entirety. In the replicon system, an autonomously replicating clone of HCV comprising HCV 5′-NTR (NTR non translated region), NS3, NS4A, NS4B, NS5A, NS5B and a neomycin selectable marker gene that is linked to the HCV genes is inserted into human hepatoma cell line known as Huh-7 cells. The HCV-RNAs produced by the autonomously replicating clone of HCV in the Huh-7 cells are extracted and retransfected into naïve Huh-7 cells to evaluate the replication competence and efficiency of the HCV-RNA. Therefore, the effect of anti-viral treatments on the HCV-RNAs produced may be evaluated by growing the replicon cells in the presence or absence of such anti-viral treatments, then extracting the replicon RNA from treated cells and transfecting it into naive Huh 7 cells and measuring colony formation. The effect of the combination of ribavirin, and IMPDH inhibitors on HCV replication in vitro was evaluated using the replicon system as described below.
# HCV Cell Culture System. Human hepatoma cell line Huh-7 cells were grown in Dulbecco's modified minimal essential medium (DMEM, Cellgro) supplemented with 10% fetal bovine serum, 4 mM L-glutamine, non-essential amino acids, 10 mM HEPES, 0.075% sodium bicarbonate, 100 U/ml penicillin and 100 ug/ml streptomycin, and 1 mM sodium pyruvate. HCV subgenomic replicon (clone 16, containing NS5A S1I791 adaptive mutation as described in Blight et al., Science 290:1972 (2000)) was constructed by Schering-Plough Research Institute as described by R. Bartenschlager. See Lohmann, et al., Science 285:5424 (2000). The replicon-bearing Huh-7 cells were maintained in the same media as described above with 0.5 mg/ml G418 (Geneticin, Gibco-BRL).
# HCV RNA Replicon Copy Number measurement by Taqman assays. Replicon cells were seeded at 3000 cells per well in 96-well Bio-coated plates (Becton Dickinson) and allowed to adhere overnight. The next day the culture medium was replaced with 5% serum medium containing the experimental compound. After 72 hours the plate was harvested by aspirating medium, washing with PBS twice, and putting in […] cell lysis buffer (Ambion, catalog No. 8722). The plate was then heated at 75° C. for 5 min followed by freezing at −70° C. for 10 min. The cell lysate was then measured for HCV replicon copy number by one-step real-time RT-PCR (Taqman assay) using an ABI 7700 instrument. The primers, which correspond to HCV NS5B, are: forward, 5′-[…]-3′ (SEQ ID NO: 1), and reverse, 5′-[…]-3′ (SEQ ID NO: 2). The double fluorescence-labeled probe (5′-[…]-3′) (SEQ ID NO: 3) was purchased from Applied Biosystems (part No. P6448-6464). The cellular GAPDH (glyceraldehyde 3-phosphate dehydrogenase) mRNA from the same cell lysate was used as an internal control for cell number and metabolic status (primers/probes purchased from Perkin Elmer, part No. 4310859). Every experiment was performed in triplicate. The entire study was conducted independently two times.
# Specific Colony Formation Efficiency (SCFE) determination. Replicon cells were loaded with compound(s) for 10 days under complete DMEM (without G418), with medium changes every 2-3 days. The total cytoplasmic RNA was extracted using RNA Easy kit from Qiagen (catalog No. 74104) and the RNA concentration was determined by absorbance at 260 nm. HCV replicon copy number in each RNA sample was determined by Taqman assay using a standard curve. For electroporation of RNA obtained from compound-treated replicon cells, 8 μg of total RNA suspended in 50 μl PBS was mixed with 50 μl suspension of 2×10^6 Huh-7 cells in a 0.1 cm cuvette (Bio-Rad, catalog No. 165-2089). As a control, wild type replicon RNA was serially diluted with total RNA from naïve Huh-7 cells.
# [2] = target: inosine monophosphate dehydrogenase (IMPDH); details: cited from J. Jain et al.; cited from earlier work
# [3] = human, in vivo; cited from earlier work
# Hepatitis C Virus = details: IFN-α monotherapy, chronic HCV infection, depending on genotype; cited from earlier work
compound,measurement,setting,value
"Nc1nc2c(ncn2[C@@H]2O[C@H](CO)[C@@H](O)[C@H]2O)c(=O)[nH]1 [Guan., guanosine]",No. of Colonies,[1]; 10 μM Guan.,210
same,Replicon Copy No.,[1]; 10 μM Guan.,12 copies X 10^7/8 μg total RNA
same,SCFE (Specific Colony Formation Efficiency),[1]; 10 μM Guan.,180 colonies/10^8 HCV RNA genomes
"COc1cc(NC(=O)Nc2cccc(CNC(=O)O[C@H]3CCOC3)c2)ccc1-c1cnco1 [IMPDH-I, (S)-N-3-[3-(3-methoxy-4-oxazol-5-yl-phenyl)ureido]-benzylcarbamic acid tetrahydrofuran-3-yl-ester]",Ki,[2],~0.01 µM
same,No. of Colonies,[1]; 100 nM IMPDH-I,370
same,Replicon Copy No.,[1]; 100 nM IMPDH-I,10 copies X 10^7/8 μg total RNA
same,SCFE (Specific Colony Formation Efficiency),[1]; 100 nM IMPDH-I,360 colonies/10^8 HCV RNA genomes
same,effect on the replicon,"[1]; 100 nM IMPDH-I alone, Example 5",only a marginal effect
"COc1c(C)c2c(c(O)c1C/C=C(\C)CCC(=O)O)C(=O)OC2 [MPA, mycophenolic acid]",No. of Colonies,[1]; 2 μM MPA,470
same,Replicon Copy No.,[1]; 2 μM MPA,9 copies X 10^7/8 μg total RNA
same,SCFE (Specific Colony Formation Efficiency),[1]; 2 μM MPA,510 colonies/10^8 HCV RNA genomes
"NC(=O)c1ncn([C@@H]2O[C@H](CO)[C@@H](O)[C@H]2O)n1 [ribavirin, 1-beta-D-Ribofuranosyl-1H-1,2,4-triazole-3-carboxamide]",patients with reduction in hemoglobin of greater than 4 g/dl,[3],15.7%
same,No. of Colonies,[1]; 10 μM ribavirin,650
same,Replicon Copy No.,[1]; 10 μM ribavirin,14 copies X 10^7/8 μg total RNA
same,SCFE (Specific Colony Formation Efficiency),[1]; 10 μM ribavirin,480 colonies/10^8 HCV RNA genomes
same,No. of Colonies,[1]; 50 μM ribavirin,420
same,Replicon Copy No.,[1]; 50 μM ribavirin,12 copies X 10^7/8 μg total RNA
same,SCFE (Specific Colony Formation Efficiency),[1]; 50 μM ribavirin,360 colonies/10^8 HCV RNA genomes
same,No. of Colonies,[1]; 100 μM ribavirin,110
same,Replicon Copy No.,[1]; 100 μM ribavirin,6 copies X 10^7/8 μg total RNA
same,SCFE (Specific Colony Formation Efficiency),[1]; 100 μM ribavirin,200 colonies/10^8 HCV RNA genomes
same,reduction in the fitness of the replicon (specific colony formation efficiency),[1]; 100 μM ribavirin alone,~4 fold
interferon-alpha,response rate,Hepatitis C Virus,about 25%
